{
  "source": "patent US20250134874A1",
  "about": "“PHARMACEUTICAL FORMULATIONS COMPRISING 3-({[(4R)-7-{METHYL[4-(PROPAN-2-YL)PHENYL]AMINO}-3,4-DIHYDRO-2H-1-BENZOPYRAN-4-YL]METHYL}AMINO)PYRIDINE-4-CARBOXYLIC ACID” (TACHYON THERAPEUTICS, INC., priority 2021, published 2025)",
  "assay": "Sink condition: solubility of API in DI water and SGF",
  "format": "physicochemical",
  "settings": "for solubility: thermodynamic from solid, read-out: Final Concentration",
  "description": "• 1. 5 mg of API was placed into a glass vial. • 2. Added 0.2 mL of diluent (DI water and SGF) into the vial, then sonicate and vortex to dissolve the API. • 3. If the solution is not clear after 5 minutes, add additional 0.2 mL of diluent into the vial, then sonicate and vortex to dissolve the API. • 4. Repeat step 4 till all API is dissolved. • 5. Calculate the final concentration of API and the maximum dissolvable dose used in dissolution test.",
  "note": "Read-outs that look alike come from different tables or passages of the source.",
  "data": [
    {"compound": "CC(C)c1ccc(N(C)c2ccc3c(c2)OCC[C@H]3CNc2cnccc2C(=O)O)cc1", "note": "[Compound 1, 3-({[(4R)-7-{methyl[4-(propan-2-yl)phenyl]amino}-3,4-dihydro-2H-1-benzopyran-4-yl]methyl}amino)pyridine-4-carboxylic acid]", "values": [
      {"measurement": "Maximum dissolvable dose used in dissolution test", "setting": "diluent DI water", "result": 717, "unit": "mg"},
      {"measurement": "Maximum dissolvable dose used in dissolution test", "setting": "diluent SGF", "result": 617, "unit": "mg"},
      {"measurement": "solubility", "setting": "simulated gastric fluid, diluent SGF", "result": "≥ 3700", "unit": "µg/mL"},
      {"measurement": "solubility", "setting": "diluent DI water", "result": "≥ 4300", "unit": "µg/mL"}
    ]}
  ]
}
